Source: patent US5225583A, “Alkyl-aryl 1,3-propanedione silicone derivative and an external preparation for skin with the derivative compounded therein” (Shiseido Co., Ltd., priority 1991, dated 1993)

How the values were obtained:
[1] = Ultraviolet ray absorption spectrum; format: physicochemical; set-up: ε: unit not given beside the values; settings: for ε: at λmax; for λmax: ultraviolet ray absorption
[2] = Test for solubility of alkyl-aryl 1,3-propanedione silicone derivative in silicone-based oils and Squalene at 25° C.; format: physicochemical; settings: for Solubility, Scwr, 30% / Solubility, Scwr, 50%: Scwr (Squalene); for Solubility, Scwr, 30%: 30% (w/w); for Solubility, Scwr, 50%: 50% (w/w); for Solubility, Silicon KF56, 30%: Silicone KF 56, 30% (w/w); for Solubility, Silicon KF56, 50%: Silicone KF 56, 50% (w/w); for Solubility, Sil. KF96, 30%: Silicone KF96, 30% (w/w); for Solubility, Sil. KF96, 50%: Silicone KF96, 50% (w/w)
Protocol: A circle (O) mark is put to a compound which is completely dissolved under 25° C., and a cross (X) mark is put to a compound which makes the solution cloudy even a little.

SMILES | ε [1] | λmax [1] | Solubility, Scwr, 30% [2] | Solubility, Scwr, 50% [2] | Solubility, Silicon KF56, 30% [2] | Solubility, Silicon KF56, 50% [2] | Solubility, Sil. KF96, 30% [2] | Solubility, Sil. KF96, 50% [2]
COc1cc(C(=O)CC(=O)C(C)(C)C)ccc1OCCC[Si](C)(O[Si](C)(C)C)O[Si](C)(C)C [Compound 2] | 23550 | 334 nm | .largecircle. | .largecircle. | .largecircle. | .largecircle. | .largecircle. | .largecircle.
COc1cc(C(=O)CC(=O)C(C)(C)C)ccc1OCC(C)C[Si](C)(O[Si](C)(C)C)O[Si](C)(C)C (centres unmarked) [Compound 7] | 27350 | 334 nm | .largecircle. | .largecircle. | .largecircle. | .largecircle. | .largecircle. | .largecircle.
COc1cc(C(=O)CC(=O)C(C)(C)C)cc(CCC[Si](C)(O[Si](C)(C)C)O[Si](C)(C)C)c1O [Compound 9] | 24000 | 342 nm | .largecircle. | .largecircle. | .largecircle. | .largecircle. | .largecircle. | –
CCCCC(CC)C(=O)CC(=O)c1cc(CCC[Si](C)(O[Si](C)(C)C)O[Si](C)(C)C)c(OC)c(OC)c1 (centres unmarked) [Compound 5] | 23500 | 334 nm | .largecircle. | .largecircle. | .largecircle. | .largecircle. | .largecircle. | .largecircle.
CCCCC(CC)C(=O)CC(=O)c1cc(CCC[Si](C)(O[Si](C)(C)C)O[Si](C)(C)C)c(OC)c(OC)c1 (centres unmarked) [Compound 6] | – | – | .largecircle. | .largecircle. | .largecircle. | .largecircle. | .largecircle. | .largecircle.
COc1cc(C(=O)CC(=O)C(C)(C)C)ccc1OCCC[Si](C)(C)O[Si](C)(C)C [Compound 1] | 24090 | 335 nm | .largecircle. | .largecircle. | .largecircle. | .largecircle. | .largecircle. | .largecircle.
COc1cc(C(=O)CC(=O)C(C)(C)C)ccc1OCCCCC[Si](C)(O[Si](C)(C)C)O[Si](C)(C)C [Compound 8] | 23220 | 334 nm | .largecircle. | .largecircle. | .largecircle. | .largecircle. | .largecircle. | .largecircle.
COc1ccc(C(=O)CC(=O)C(C)(C)C)cc1OCCC[Si](C)(O[Si](C)(C)C)O[Si](C)(C)C [Compound 3] | – | – | .largecircle. | .largecircle. | .largecircle. | .largecircle. | .largecircle. | .largecircle.
